Consider four molecules from publication PMC8980814 (The Journal of Biological Chemistry, 2022).

Each structure is given as a SMILES string.

What all share (assay): whole-cell patch clamp, HEK-293T
Holding throughout (format): cell-based

The target in assay [1] is T1, TCaV1 (Trichoplax adhaerens, UniProt A0A8K1XS01). Conditions: for inhibition at 10 µM: read-out: % block at 10 μM.
Assay [2] has as its target T2, rCaV1.2 (Rattus norvegicus, UniProt P22002). Conditions: for inhibition at 10 µM: read-out: % block at 10 μM.
In assay [3] the target is T2, rCaV1.2. Conditions: 3 mM external Ca2+, step from -100 mV to 0 mV, pH 7.4, agonist.
The target in assay [4] is T1, TCaV1. Conditions: 3 mM external Ca2+, step from -100 mV to 0 mV, pH 7.4, agonist.

T2 sequence (P22002 whole entry): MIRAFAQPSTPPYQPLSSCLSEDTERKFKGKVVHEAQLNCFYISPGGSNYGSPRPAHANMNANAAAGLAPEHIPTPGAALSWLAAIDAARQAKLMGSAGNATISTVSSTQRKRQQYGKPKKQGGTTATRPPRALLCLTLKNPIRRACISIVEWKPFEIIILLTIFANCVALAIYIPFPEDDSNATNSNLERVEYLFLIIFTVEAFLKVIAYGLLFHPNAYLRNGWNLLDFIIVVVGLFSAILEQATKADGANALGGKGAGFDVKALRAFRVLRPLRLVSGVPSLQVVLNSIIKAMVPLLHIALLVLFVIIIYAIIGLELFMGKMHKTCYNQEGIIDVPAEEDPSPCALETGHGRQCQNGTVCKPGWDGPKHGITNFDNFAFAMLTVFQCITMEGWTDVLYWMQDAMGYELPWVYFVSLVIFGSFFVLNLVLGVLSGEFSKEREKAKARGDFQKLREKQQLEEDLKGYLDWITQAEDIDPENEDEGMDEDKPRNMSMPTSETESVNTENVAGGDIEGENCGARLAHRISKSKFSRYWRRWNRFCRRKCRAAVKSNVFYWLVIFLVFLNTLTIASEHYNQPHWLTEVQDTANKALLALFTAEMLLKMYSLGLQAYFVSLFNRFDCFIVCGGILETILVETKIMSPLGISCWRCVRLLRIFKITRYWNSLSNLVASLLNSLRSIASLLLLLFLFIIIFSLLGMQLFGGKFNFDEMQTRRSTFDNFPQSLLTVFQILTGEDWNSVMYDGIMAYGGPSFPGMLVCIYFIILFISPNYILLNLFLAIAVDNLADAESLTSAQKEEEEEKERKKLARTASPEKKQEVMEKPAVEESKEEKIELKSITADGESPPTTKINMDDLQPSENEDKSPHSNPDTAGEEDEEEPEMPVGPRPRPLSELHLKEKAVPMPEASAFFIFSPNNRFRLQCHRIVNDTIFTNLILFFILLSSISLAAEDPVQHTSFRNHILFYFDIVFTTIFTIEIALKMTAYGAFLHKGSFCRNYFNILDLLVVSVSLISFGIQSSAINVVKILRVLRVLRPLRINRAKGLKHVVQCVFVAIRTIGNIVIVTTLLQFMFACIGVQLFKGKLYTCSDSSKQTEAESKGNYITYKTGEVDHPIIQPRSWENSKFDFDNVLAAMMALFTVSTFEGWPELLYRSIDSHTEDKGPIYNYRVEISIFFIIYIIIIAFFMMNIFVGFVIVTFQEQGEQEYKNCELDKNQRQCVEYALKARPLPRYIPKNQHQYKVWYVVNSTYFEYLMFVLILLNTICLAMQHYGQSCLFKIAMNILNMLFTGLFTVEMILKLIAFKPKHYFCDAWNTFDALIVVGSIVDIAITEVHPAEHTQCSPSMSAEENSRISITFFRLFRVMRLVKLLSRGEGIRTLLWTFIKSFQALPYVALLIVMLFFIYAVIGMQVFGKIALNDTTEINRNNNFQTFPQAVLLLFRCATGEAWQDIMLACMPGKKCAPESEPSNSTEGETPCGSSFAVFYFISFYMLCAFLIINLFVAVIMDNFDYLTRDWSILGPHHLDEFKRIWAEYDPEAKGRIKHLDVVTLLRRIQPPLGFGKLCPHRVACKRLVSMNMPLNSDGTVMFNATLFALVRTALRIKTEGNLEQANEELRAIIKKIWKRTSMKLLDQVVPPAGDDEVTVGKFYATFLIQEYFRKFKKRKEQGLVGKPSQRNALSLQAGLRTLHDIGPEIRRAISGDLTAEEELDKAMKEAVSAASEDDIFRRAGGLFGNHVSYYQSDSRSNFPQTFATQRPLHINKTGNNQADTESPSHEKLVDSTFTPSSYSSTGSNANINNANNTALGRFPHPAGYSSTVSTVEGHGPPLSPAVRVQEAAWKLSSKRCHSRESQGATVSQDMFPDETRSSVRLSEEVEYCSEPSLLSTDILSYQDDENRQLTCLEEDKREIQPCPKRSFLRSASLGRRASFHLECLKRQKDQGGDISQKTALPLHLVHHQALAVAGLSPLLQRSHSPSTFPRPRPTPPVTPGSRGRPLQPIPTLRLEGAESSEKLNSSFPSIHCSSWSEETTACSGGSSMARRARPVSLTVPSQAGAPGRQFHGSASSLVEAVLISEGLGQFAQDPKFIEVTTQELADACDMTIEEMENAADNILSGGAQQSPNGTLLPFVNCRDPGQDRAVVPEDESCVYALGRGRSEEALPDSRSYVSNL
T2 sequence (P54283 whole entry partner): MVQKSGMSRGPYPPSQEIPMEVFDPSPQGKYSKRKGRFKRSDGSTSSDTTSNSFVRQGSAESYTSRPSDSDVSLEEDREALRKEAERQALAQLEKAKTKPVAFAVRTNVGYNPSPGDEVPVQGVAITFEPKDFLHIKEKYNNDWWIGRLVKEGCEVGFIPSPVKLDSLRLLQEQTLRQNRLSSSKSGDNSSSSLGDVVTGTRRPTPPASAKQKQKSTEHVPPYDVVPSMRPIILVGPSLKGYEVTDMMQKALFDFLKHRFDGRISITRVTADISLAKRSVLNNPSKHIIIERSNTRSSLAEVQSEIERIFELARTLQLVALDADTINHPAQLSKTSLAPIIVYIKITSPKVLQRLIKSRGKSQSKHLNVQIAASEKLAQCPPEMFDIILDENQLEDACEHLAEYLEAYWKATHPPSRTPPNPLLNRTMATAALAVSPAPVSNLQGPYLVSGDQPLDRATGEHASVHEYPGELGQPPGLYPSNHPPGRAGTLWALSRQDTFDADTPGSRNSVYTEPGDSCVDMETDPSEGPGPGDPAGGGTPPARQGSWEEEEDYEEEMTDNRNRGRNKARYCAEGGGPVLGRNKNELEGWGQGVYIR
T2 sequence (P54290 25-944 partner): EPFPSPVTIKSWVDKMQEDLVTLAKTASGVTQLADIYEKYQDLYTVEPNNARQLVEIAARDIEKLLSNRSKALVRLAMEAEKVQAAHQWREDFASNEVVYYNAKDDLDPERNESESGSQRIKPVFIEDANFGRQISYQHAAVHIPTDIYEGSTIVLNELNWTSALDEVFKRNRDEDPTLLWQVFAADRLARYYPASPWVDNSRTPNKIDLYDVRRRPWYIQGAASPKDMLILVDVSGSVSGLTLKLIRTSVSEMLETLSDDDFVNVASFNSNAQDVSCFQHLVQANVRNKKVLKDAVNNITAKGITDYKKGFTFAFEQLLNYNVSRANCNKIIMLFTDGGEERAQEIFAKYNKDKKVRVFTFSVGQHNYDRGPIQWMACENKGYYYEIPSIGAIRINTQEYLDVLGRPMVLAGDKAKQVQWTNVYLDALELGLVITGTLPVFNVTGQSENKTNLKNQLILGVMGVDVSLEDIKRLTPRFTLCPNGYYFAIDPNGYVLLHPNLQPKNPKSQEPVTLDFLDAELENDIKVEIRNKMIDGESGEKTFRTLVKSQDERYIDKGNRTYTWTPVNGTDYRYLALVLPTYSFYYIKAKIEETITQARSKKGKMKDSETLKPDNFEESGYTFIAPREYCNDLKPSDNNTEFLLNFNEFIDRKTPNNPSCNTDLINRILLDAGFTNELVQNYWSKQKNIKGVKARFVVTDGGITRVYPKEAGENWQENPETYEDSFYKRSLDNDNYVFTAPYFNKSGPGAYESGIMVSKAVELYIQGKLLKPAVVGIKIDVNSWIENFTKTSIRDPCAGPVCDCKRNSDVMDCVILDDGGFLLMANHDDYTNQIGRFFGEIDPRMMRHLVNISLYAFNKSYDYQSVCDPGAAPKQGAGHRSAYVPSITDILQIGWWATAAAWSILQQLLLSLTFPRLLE
T2 sequence (P54290 945-1091 partner): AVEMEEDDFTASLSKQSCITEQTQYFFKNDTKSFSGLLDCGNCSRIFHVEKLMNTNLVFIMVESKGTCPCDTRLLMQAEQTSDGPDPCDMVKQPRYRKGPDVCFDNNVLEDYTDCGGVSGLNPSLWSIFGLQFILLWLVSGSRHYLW

As to `COC(=O)C1=C(C)NC(C)=C(C(=O)OC(C)C)C1c1cccc2nonc12` (centres unmarked) [isradipine], the inhibition at 10 µM in assay [1] stood at 11.5 ± 2.2%; in assay [2] it was 95 ± 6.1%.
Regarding `COC(=O)C1=C(C)NC(C)=C(C(=O)OC)C1c1ccccc1[N+](=O)[O-]` [nifedipine], the values for the inhibition at 10 µM in assay [1] and in assay [2] were 5.8 ± 3.6% and 99.7 ± 0.1%, respectively.
Regarding `COC(=O)C1=C(C)NC(C)=C([N+](=O)[O-])[C@@H]1c1ccccc1C(F)(F)F` [R(+)BayK 8644], the inhibition at 100 µM in assay [1] (read-out: % block at 100 μM) is 74.2 ± 0.05%; in assay [2] (read-out: % block at 100 μM), 97.3 ± 0.01%.
Regarding `COC(=O)C1=C(C)NC(C)=C([N+](=O)[O-])[C@H]1c1ccccc1C(F)(F)F` [S(-)BayK 8644], the “fold-increase in peak current at 5 μM” value in assay [3] was determined as 1.64 ± 0.32 fold; in assay [4] it was 1.11 ± 0.024 fold.
